Experimental data taken from patent US20250179017A1 (GUANGDONG NEWOPP BIOPHARMACEUTICALS CO., LTD., priority 2022, published 2025).

Biological target: T1, human EP2 (PTGER2) (Homo sapiens, UniProt P43116)
T1 construct: Cayman Chemical (Human EP2 Reporter Assay Kit)
Assay: EP2 antagonist assay (HEK-293 CNG membrane potential cAMP assay / 293T SEAP reporter assay, PGE2-stimulated)
Assay type: cell-based
Conditions: EP2 antagonist activity; concentration for 50% inhibition of signal compared to DMSO
Procedure, shortened: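 Two formats. In a CRE-SEAP reporter assay, reverse-transfected 293T cells received compound with PGE2 (13 nM final) for 6-8 h, then luminescence was read. In the ACTOne CNG format, HEK-293 cells were preincubated with compound for 15 min at RT, stimulated with 5 nM PGE2 for 30 min, and read by membrane-potential dye fluorescence. IC50 was taken versus DMSO.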

T1 sequence (P43116 whole entry): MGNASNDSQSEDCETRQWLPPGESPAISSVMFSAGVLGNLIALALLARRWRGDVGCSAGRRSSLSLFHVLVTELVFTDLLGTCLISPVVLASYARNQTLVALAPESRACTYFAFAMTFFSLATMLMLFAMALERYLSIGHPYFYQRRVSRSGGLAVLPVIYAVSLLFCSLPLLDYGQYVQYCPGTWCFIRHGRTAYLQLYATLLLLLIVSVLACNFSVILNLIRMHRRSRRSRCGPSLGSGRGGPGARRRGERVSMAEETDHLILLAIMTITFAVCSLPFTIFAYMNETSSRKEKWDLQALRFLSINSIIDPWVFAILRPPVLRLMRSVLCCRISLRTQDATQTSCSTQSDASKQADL

Row | SMILES | IC50
1 | O=C(O)c1ccc(CNC(=O)c2cc(-c3ccc(F)cc3)cc3ccn(Cc4ccc5ccccc5n4)c23)cc1 [Example 142, 4-((5-(4-fluorophenyl)-1-(quinolin-2-ylmethyl)-1H-indole-7-carboxamido)methyl)benzoic acid] | < 0.1 µM
2 | C[C@H](NC(=O)c1cc(-c2ccccc2)cc2ccn(Cc3ccc4ccccc4n3)c12)c1ccc(C(=O)O)cc1 [Example 143, (S)-4-(1-(5-phenyl-1-(quinolin-2-ylmethyl)-1H-indole-7-carboxamido)ethyl)benzoic acid] | < 0.1 µM
3 | C[C@H](NC(=O)c1cc(-c2ccc(F)cc2)cc2ccn(Cc3ccc4ccccc4n3)c12)c1ccc(C(=O)O)cc1 [Example 144, (S)-4-(1-(5-(4-fluorophenyl)-1-(quinolin-2-ylmethyl)-1H-indole-7-carboxamido)ethyl)benzoic acid] | < 0.1 µM
4 | O=C(O)c1ccc(CNC(=O)c2cc(-c3ccccc3)cc3ccn(Cc4cccc(-c5ccccc5)c4)c23)cc1 [Example 145, ((1-([1,1′-biphenyl]-3-ylmethyl)-5-phenyl-1H-indole-7-carboxamido)methyl)benzoic acid] | < 0.1 µM
5 | COc1cccc(Cn2ccc3cc(-c4ccccc4)cc(C(=O)NCc4ccc(C(=O)O)cc4)c32)c1 [Example 146, 4-((1-(3-methoxybenzyl)-5-phenyl-1H-indole-7-carboxamido)methyl)benzoic acid] | < 0.1 µM
6 | O=C(O)c1ccc(CNC(=O)c2cc(-c3ccc(F)cc3)cc3ccn(Cc4ccc(-c5ccccc5)cc4)c23)cc1 [Example 148, 4-((1-([1,1′-biphenyl]-4-ylmethyl)-5-(4-fluorophenyl)-1H-indole-7-carboxamido)methyl)benzoic acid] | < 0.1 µM
7 | O=C(O)c1ccc(CNC(=O)c2ccc(Nc3ccccc3)c3ccn(Cc4ccc5ccccc5n4)c23)cc1 [Example 153, 4-((4-(phenylamino)-1-(quinolin-2-ylmethyl)-1H-indole-7-carboxamido)methyl)benzoic acid] | < 0.1 µM
8 | COc1cccc(Cn2ccc3c(Nc4ccccc4)ccc(C(=O)NCc4ccc(C(=O)O)cc4)c32)c1 [Example 155, 4-((1-(3-methoxybenzyl)-4-(phenylamino)-1H-indole-7-carboxamido)methyl)benzoic acid] | < 0.1 µM
9 | O=C(O)c1ccc(CNC(=O)c2cc(-c3cc(F)cc(F)c3)cc3cnn(Cc4ccc5ccccc5c4)c23)cc1 [Example 157, 4-((5-(3,5-difluorophenyl)-1-(naphthalen-2-ylmethyl)-1H-indazole-7-carboxamido)methyl)benzoic acid] | < 0.1 µM
10 | COc1cccc(Cn2ccc3c(Nc4ccccc4)ccc(C(=O)N[C@@H](C)c4ccc(C(=O)O)cc4)c32)c1 [Example 158, (S)-4-(1-(1-(3-methoxybenzyl)-4-(phenylamino)-1H-indole-7-carboxamido)ethyl)benzoic acid] | < 0.1 µM
11 | O=C(O)c1ccc(CNC(=O)c2cc(-c3ccccc3)cc3ccn(Cc4ccc5ccccc5c4)c23)cc1 [Example 159, 4-((1-(naphthalen-2-ylmethyl)-5-phenyl-1H-indole-7-carboxamido)methyl)benzoic acid] | < 0.1 µM
12 | O=C(O)c1ccc(CNC(=O)c2cc(-c3ccc(F)cc3)cc3ccn(Cc4ccc5ccccc5c4)c23)cc1 [Example 160, 4-((5-(4-fluorophenyl)-1-(naphthalen-2-ylmethyl)-1H-indole-7-carboxamido)methyl)benzoic acid] | < 0.1 µM
13 | O=C(O)c1ccc(CNC(=O)c2cc(-c3cc(F)cc(F)c3)cc3ccn(Cc4ccc5ccccc5c4)c23)cc1 [Example 161, 4-((5-(3,5-difluorophenyl)-1-(naphthalen-2-ylmethyl)-1H-indole-7-carboxamido)methyl)benzoic acid] | < 0.1 µM
14 | C[C@H](NC(=O)c1cc(-c2ccccc2)cc2ccn(Cc3ccc4ccccc4c3)c12)c1ccc(C(=O)O)cc1 [Example 162, (S)-4-(1-(1-(naphthalen-2-ylmethyl)-5-phenyl-1H-indole-7-carboxamido)ethyl)benzoic acid] | < 0.1 µM
15 | C[C@H](NC(=O)c1cc(-c2ccc(F)cc2)cc2ccn(Cc3ccc4ccccc4c3)c12)c1ccc(C(=O)O)cc1 [Example 163, (S)-4-(1-(5-(4-fluorophenyl)-1-(naphthalen-2-ylmethyl)-1H-indole-7-carboxamido)ethyl)benzoic acid] | < 0.1 µM
16 | C[C@H](NC(=O)c1cc(-c2cc(F)cc(F)c2)cc2ccn(Cc3ccc4ccccc4c3)c12)c1ccc(C(=O)O)cc1 [Example 164, (S)-4-(1-(5-(3,5-difluorophenyl)-1-(naphthalen-2-ylmethyl)-1H-indole-7-carboxamido)ethyl)benzoic acid] | < 0.1 µM
17 | C[C@H](NC(=O)c1cc(-c2ccccc2)cc2cnn(Cc3ccc4ccccc4c3)c12)c1ccc(C(=O)O)cc1 [Example 167, (S)-4-(1-(1-(naphthalen-2-ylmethyl)-5-phenyl-1H-indazole-7-carboxamido)ethyl)benzoic acid] | < 0.1 µM
18 | C[C@H](NC(=O)c1cc(-c2ccccc2)cc2cnn(Cc3cccc(Cl)c3)c12)c1ccc(C(=O)O)cc1 [Example 170, (S)-4-(1-(1-(3-chlorobenzyl)-5-phenyl-1H-indazole-7-carboxamido)ethyl)benzoic acid] | < 0.1 µM
19 | O=C(O)c1ccc(CNC(=O)c2cc(-c3ccccc3)cc3ncn(Cc4ccc(C(F)(F)F)cc4)c23)cc1 [Example 171, 4-((5-phenyl-1-(4-(trifluoromethyl)benzyl)-1H-benzo[d]imidazole-7-carboxamido)-methyl)benzoic acid] | < 0.1 µM
20 | O=C(O)c1ccc(CNC(=O)c2cc(-c3ccc(F)cc3)cc3ncn(Cc4ccc(C(F)(F)F)cc4)c23)cc1 [Example 172, 4-((5-(4-fluorophenyl)-1-(4-(trifluoromethyl)benzyl)-1H-benzo[d]imidazole-7-carboxamido)methyl)benzoic acid] | < 0.1 µM

Now from value to compound:

Row | IC50 | SMILES
21 | < 0.1 µM | O=C(O)c1ccc(CNC(=O)c2cc(-c3cc(F)cc(F)c3)cc3ncn(Cc4ccc(C(F)(F)F)cc4)c23)cc1 [Example 173, 4-((5-(3,5-difluorophenyl)-1-(4-(trifluoromethyl)benzyl)-1H-benzo[d]imidazole-7-carboxamido)methyl)benzoic acid]
22 | < 0.1 µM | O=C(O)c1ccc(CNC(=O)c2cc(-c3ccccc3)cc3nnn(Cc4ccc(C(F)(F)F)cc4)c23)cc1 [Example 174, ((5-phenyl-1-(4-(trifluoromethyl)benzyl)-1H-benzo[d][1,2,3]triazole-7-carboxamido)methyl)benzoic acid]
23 | < 0.1 µM | O=C(O)c1ccc(CNC(=O)c2cc(-c3ccccc3)cc3ccn(Cc4cccc5ccccc45)c23)cc1 [Example 177, 44-((1-(naphthalen-1-ylmethyl)-5-phenyl-1H-indole-7-carboxamido)methyl)benzoic acid]
24 | < 0.1 µM | C[C@H](NC(=O)c1cc(-c2ccccc2)cc2nnn(Cc3ccc(C(F)(F)F)cc3)c12)c1ccc(C(=O)O)cc1 [Example 179, (S)-4-(1-(5-phenyl-1-(4-(trifluoromethyl)benzyl)-1H-benzo[d][1,2,3]triazole-7-carboxamido)ethyl)benzoic acid]
25 | ≥ 1 µM | C[C@H](NC(=O)c1cc(-c2cc(F)cc(F)c2)cc2nnn(Cc3ccc(C(F)(F)F)cc3)c12)c1ccc(C(=O)O)cc1 [Example 181, (S)-4-(1-(5-(3,5-difluorophenyl)-1-(4-(trifluoromethyl)benzyl)-1H-benzo[d][1,2,3]triazole-7-carboxamido)ethyl)benzoic acid]
26 | ≥ 1 µM | O=C(O)c1ccc(CNC(=O)c2ccc(Nc3ccc(F)cc3)c3cnn(Cc4ccc5ccccc5c4)c23)cc1 [Example 182, 4-((4-((4-fluorophenyl)amino)-1-(naphthalen-2-ylmethyl)-1H-indazole-7-carboxamido)methyl)benzoic acid]
27 | < 0.1 µM | O=C(O)c1ccc(CNC(=O)c2ccc(Nc3ccc(F)cc3)c3ccn(Cc4ccc5ccccc5c4)c23)cc1 [Example 183, ((4-((4-fluorophenyl)amino)-1-(naphthalen-2-ylmethyl)-1H-indole-7-carboxamido)methyl)benzoic acid]
28 | < 0.1 µM | O=C(O)c1ccc(CNC(=O)c2cc(-c3ccc(F)cc3)cc3cnn(Cc4ccc(-c5ccc(F)cc5)cc4)c23)cc1 [Example 185, 4-((1-((4′-fluoro-[1,1′-biphenyl]-4-yl)methyl)-5-(4-fluorophenyl)-1H-indazole-7-carboxamido)methyl)benzoic acid]
29 | < 0.1 µM | O=C(O)c1ccc(CNC(=O)c2cc(-c3cc(F)cc(F)c3)cc3cnn(Cc4ccc(-c5ccc(F)cc5)cc4)c23)cc1 [Example 186, 4-((5-(3,5-difluorophenyl)-1-((4′-fluoro-[1,1′-biphenyl]-4-yl)methyl)-1H-indazole-7-carboxamido)methyl)benzoic acid]
30 | < 0.1 µM | O=C(O)c1ccc(CNC(=O)c2cc(-c3ccc(F)c(F)c3)cc3cnn(Cc4ccc(-c5ccc(F)cc5)cc4)c23)cc1 [Example 187, 4-((5-(3,4-difluorophenyl)-1-((4′-fluoro-[1,1′-biphenyl]-4-yl)methyl)-1H-indazole-7-carboxamido)methyl)benzoic acid]
31 | < 0.1 µM | O=C(O)c1ccc(CNC(=O)c2cc(-c3cc(F)cc(F)c3)cc3cnn(Cc4ccc(-c5ccccc5)cc4)c23)cc1 [Example 192, 4-((1-([1,1′-biphenyl]-4-ylmethyl)-5-(3,5-difluorophenyl)-1H-indazole-7-carboxamido)methyl)benzoic acid]
32 | < 0.1 µM | O=C(O)c1ccc(CNC(=O)c2cc(-c3ccc(F)c(F)c3)cc3cnn(Cc4ccc(-c5ccccc5)cc4)c23)cc1 [Example 193, 4-((1-([1,1′-biphenyl]-4-ylmethyl)-5-(3,4-difluorophenyl)-1H-indazole-7-carboxamido)methyl)benzoic acid]
33 | < 0.1 µM | C[C@H](NC(=O)c1cc(-c2ccc(F)cc2)cc2cnn(Cc3ccc(C(F)(F)F)cc3)c12)c1ccc(C(=O)O)cc1 [Example 194, (S)-4-(1-(5-(4-fluorophenyl)-1-(4-(trifluoromethyl)benzyl)-1H-indazole-7-carboxamido)ethyl)benzoic acid]
